From patent US9174998B2, “(6S,9aS)-N-benzyl-6-[(4-hydroxyphenyl)methyl]-4,7-dioxo-8-({6-[3-(piperazin-1-yl)azetidin-1-yl]pyridin-2-yl}methyl)-2-(prop-2-en-1-yl)-octahydro-1H-pyrazino[2,1-c][1,2,4]triazine-1-carboxamide compound” (Eisai R&D Management Co., Ltd., priority 2013, dated 2015)
Converted amounts (≈) assume the structure as drawn.

Legend:
[1] = system: human chronic myologenous leukemia cell strain K562; test: Anti-tumor effect in human K562 subcutaneous transplantation model; details: day 28
[2] = Evaluation of solubility (DMSO stock into PBS, HPLC-UV); type: physicochemical; details: aqueous buffer, kinetic from dmso stock; Dulbecco's phosphate-buffered saline pH 7, room temperature, about 15 minutes shaking; values greater than 200 μM regarded as 200 μM; read-out: Test Example 3 solubility
In short: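 Kinetic solubility: 20 mM DMSO stock spiked into Dulbecco's PBS pH 7, shaken about 15 min at room temperature, then suction-filtered; filtrate quantified by HPLC-UV against a 200 μM DMSO standard. Values above 200 μM are capped at 200 μM.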

[3] = system: Wnt signal; test: Detection of Wnt signal (TOPglow luciferase reporter, LiCl-stimulated); type: cell-based; details: Homo sapiens; HEK293 clone carrying pNeo-TOP reporter; LiCl stimulation; luciferase luminescence; read-out: Test Example 1 IC50 (concentration required for inhibiting the Wnt signal activity by 50%)
In short: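 Stable HEK293 clone carrying a TOPglow TCF/Wnt-responsive luciferase reporter, stimulated with 80 mM LiCl in the diluted sample medium alongside compound; luminescence read with Bright-Glo 6 h after addition. IC50 derived from activity scaled between LiCl-only wells (100%) and wells lacking both LiCl and sample (0%).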

[4] = PAMPA test (parallel artificial membrane permeability assay); type: in vitro ADME; details: phosphate buffer pH 6.8, about 200 μM, about 5 hours, room temperature, read-out: Test Example 4 membrane permeation coefficient Pe
In short: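 Compounds at about 200 μM in pH 6.8 phosphate buffer with about 1% DMSO on the donor side. Transport across a lipid-precoated PVDF membrane with shaking at 350 rpm, room temperature, about 5 h. Donor and acceptor concentrations measured by HPLC-UV; Pe (cm/s) calculated from these.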

[5] = Evaluation of metabolic stability; type: in vitro ADME, human; details: 0.2 mg/mL HLM, 0.1 μM test substance, 15 minutes at 37° C., with vs without NADPH production
In short: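 Pooled human liver microsomes (0.2 mg/mL) in 0.1 M potassium phosphate pH 7.4 with EDTA, MgCl2 and an NADPH-generating system (NADP+, glucose-6-phosphate, G6PDH). Residual ratio by LC-MS/MS, comparing with versus without NADPH generation.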

[6] = Evaluation of solubility (Examples 25 and 26), visual judgment; type: physicochemical; details: aqueous buffer, thermodynamic from solid; Dulbecco's phosphate-buffered saline pH 7; about 10 mg sample, test solution added in 0.1 mL portions until dissolved
Experimental: About 10 mg of a sample was weighed accurately and placed in a 10-mL polypropylene test tube, a test solution shown below was added thereto by portions (0.1 mL) until the sample was dissolved completely. When the test solution was added, the mixed solution was stirred intermittently in a range from about 30 seconds to 3 minutes using a Vortex mixer every time the test solution was added. The solubility (mM) of the sample was calculated from the added amount of the test solution required until the presence of any solid material was not observed by visual judgment.
Test solution: GIBCO (registered trade name) (Dulbecco's phosphate-buffered saline having a pH value of 7, Invitrogen Corporation)

Compound	the number of individuals in which a tumor was not observed by visual judgment/total number of mice ([1]; Dasatinib 5 mg/kg alone, oral qd, 5 days on/2 days off, two cycles)	solubility [2] [µM]	the number of individuals in which a tumor was not observed by visual judgment/total number of mice ([1]; Compound of Example 1 35 mg/kg oral bid for 5 days combined with Dasatinib 5 mg/kg qd, * P 0.05 or less vs Dasatinib alone (Fisher's test))	the number of individuals in which a tumor was not observed by visual judgment/total number of mice ([1]; Compound of Example 1 50 mg/kg oral bid for 5 days combined with Dasatinib 5 mg/kg qd, *** P 0.01 or less vs Dasatinib alone (Fisher's test))	the number of individuals in which a tumor was not observed by visual judgment/total number of mice ([1]; Compound of Example 1 75 mg/kg oral bid for 5 days combined with Dasatinib 5 mg/kg qd, *** P 0.01 or less vs Dasatinib alone (Fisher's test))	IC50 [3] [nM]	Papp [4] [×10⁻⁶ cm/s]	Test Example 2 residual ratio of the test substance [5] [%]	solubility [6] [µM]
Cc1nc(Nc2ncc(C(=O)Nc3c(C)cccc3Cl)s2)cc(N2CCN(CCO)CC2)n1 [Dasatinib, reference compound]	0/9	–	–	–	–	–	–	–	–
C=CCN1CC(=O)N2[C@@H](Cc3ccc(O)cc3F)C(=O)N(Cc3cccc(N4CC(N5CCN(CC)CC5)C4)n3)C[C@@H]2N1C(=O)NCc1ccccc1 [Example 1, (6S,9aS)-N-Benzyl-8-((6-(3-(4-ethylpiperazin-1-yl)azetidin-1-yl)pyridin-2-yl)methyl)-6-((2-fluoro-4-hydroxyphenyl)methyl)-4,7-dioxo-2-(prop-2-en-1-yl)-octahydro-1H-pyrazino[2,1-c][1,2,4]triazine-1-carboxamide]	–	197 (≈ 143 µg/mL)	6/10*	9/10***	10/10***	60	2.01	47	–
C=CCN1CC(=O)N2[C@@H](Cc3ccc(OP(=O)(O)O)cc3F)C(=O)N(Cc3cccc(N4CC(N5CCN(CC)CC5)C4)n3)C[C@@H]2N1C(=O)NCc1ccccc1 [Example 25, 4-(((6S,9aS)-1-(Benzylcarbamoyl)-8-((6-(3-(4-ethylpiperazin-1-yl)azetidin-1-yl)pyridin-2-yl)methyl)-4,7-dioxo-2-(prop-2-en-1-yl)-octahydro-1H-pyrazino[2,1-c][1,2,4]triazin-6-yl)methyl)-3-fluorophenyl dihydrogen phosphate]	–	–	–	–	–	180	–	–	≥ 124000
C=CCN1CC(=O)N2C(CN(Cc3cccc(N4CC(N5CCN(CC)CC5)C4)n3)C(=O)[C@@H]2Cc2ccc(OP(=O)(O)O)cc2)N1C(=O)NCc1ccccc1 (stereo partly drawn) [Example 26, 4-(((6S,9aS)-1-(Benzylcarbamoyl)-8-((6-(3-(4-ethylpiperazin-1-yl)azetidin-1-yl)pyridin-2-yl)methyl-4,7-dioxo-2-(prop-2-en-1-yl)-octahydro-1H-pyrazino[2,1-c][1,2,4]triazin-6-yl)methyl)phenyldihydrogen phosphate]	–	–	–	–	–	1190	–	–	42000 to 62000
C=CCN1CC(=O)N2[C@@H](Cc3ccc(O)cc3)C(=O)N(Cc3cccc(N4CC(N5CCN(C)[C@@H](C)C5)C4)n3)C[C@@H]2N1C(=O)NCc1ccccc1 [Example 27, (6S,9aS)-N-Benzyl-8-((6-(3-((3S)-3,4-dimethylpiperazin-1-yl)azetidin-1-yl)pyridin-2-yl)methyl)-6-((4-hydroxyphenyl)methyl)-4,7-dioxo-2-(prop-2-en-1-yl)-octahydro-1H-pyrazino[2,1-c][1,2,4]triazine-1-carboxamide]	–	199 (≈ 141 µg/mL)	–	–	–	400	1.04	57	–
C=CCN1CC(=O)N2[C@@H](Cc3ccc(O)cc3)C(=O)N(Cc3cccc(N4CC(N5CCN(C)[C@H](C)C5)C4)n3)C[C@@H]2N1C(=O)NCc1ccccc1 [Example 28, (6S,9aS)-N-Benzyl-8-((6-(3-((3R)-3,4-dimethylpiperazin-1-yl)azetidin-1-yl)pyridin-2-yl)methyl)-6-((4-hydroxyphenyl)methyl)-4,7-dioxo-2-(prop-2-en-1-yl)-octahydro-1H-pyrazino[2,1-c][1,2,4]triazine-1-carboxamide]	–	198 (≈ 140 µg/mL)	–	–	–	380	0.95	55	–
C=CCN1CC(=O)N2[C@@H](Cc3ccc(O)cc3)C(=O)N(Cc3ccc(F)c(N4CC(N5CCC(N(C)C)CC5)C4)n3)C[C@@H]2N1C(=O)NCc1ccccc1 [Reference Example 1, (6S,9aS)-N-Benzyl-8-((6-(3-(4-(dimethylamino)piperidin-1-yl)azetidin-1-yl)-5-fluoropyridin-2-yl)methyl)-6-((4-hydroxyphenyl)methyl)-4,7-dioxo-2-(prop-2-en-1-yl)-octahydro-1H-pyrazino[2,1-c][1,2,4]triazine-1-carboxamide]	–	193 (≈ 143 µg/mL)	–	–	–	240	0.62	54	–
C=CCN1CC(=O)N2[C@@H](Cc3ccc(O)cc3F)C(=O)N(Cc3cccc(N4CC(N5CC[C@@H](N(C)C)C5)C4)n3)C[C@@H]2N1C(=O)NCc1ccccc1 [Reference Example 2, (6S,9aS)-N-Benzyl-8-((6-(3-((3R)-3-(dimethylamino)pyrrolidin-1-yl)azetidin-1-yl)pyridin-2-yl)methyl)-6-((2-fluoro-4-hydroxyphenyl)methyl)-4,7-dioxo-2-(prop-2-en-1-yl)-octahydro-1H-pyrazino[2,1-c][1,2,4]triazine-1-carboxamide]	–	195 (≈ 142 µg/mL)	–	–	–	330	0.65	51	–
C=CCN1CC(=O)N2[C@@H](Cc3ccc(O)cc3F)C(=O)N(Cc3ccc(F)c(N4CC(N5CCC(N(C)C)CC5)C4)n3)C[C@@H]2N1C(=O)NCc1ccccc1 [Reference Example 3, (6S,9aS)-N-Benzyl-8-((6-(3-(4-(dimethylamino)piperidin-1-yl)azetidin-1-yl)-5-fluoropyridin-2-yl)methyl)-6-((2-fluoro-4-hydroxyphenyl)methyl)-4,7-dioxo-2-(prop-2-en-1-yl)-octahydro-1H-pyrazino[2,1-c][1,2,4]triazine-1-carboxamide]	–	199 (≈ 151 µg/mL)	–	–	–	110	0.55	50	–
C=CCN1CC(=O)N2[C@@H](Cc3ccc(O)cc3F)C(=O)N(Cc3ccc(F)c(N4CC(N5C[C@@H]6C[C@H]5CN6C(C)C)C4)n3)C[C@@H]2N1C(=O)NCc1ccccc1 [Reference Example 4, (6S,9aS)-N-Benzyl-6-((2-fluoro-4-hydroxyphenyl)methyl)-8-((5-fluoro-6-(3-((1S,4S)-5-(propan-2-yl)-2,5-diazabicyclo[2.2.1]heptan-2-yl)azetidin-1-yl)pyridin-2-yl)methyl)-4,7-dioxo-2-(prop-2-en-1-yl)-octahydro-1H-pyrazino[2,1-c][1,2,4]triazine-1-carboxamide]	–	198 (≈ 152 µg/mL)	–	–	–	150	0.68	34	–
C=CCN1CC(=O)N2[C@@H](Cc3ccc(O)cc3F)C(=O)N(Cc3cccc(N4CC(N(C)CCN5CCOCC5)C4)n3)C[C@@H]2N1C(=O)NCc1ccccc1 [Reference Example 5, (6S,9aS)-N-Benzyl-6-((2-fluoro-4-hydroxyphenyl)methyl)-8-((6-(3-(methyl(2-(morpholin-4-yl)ethyl)amino)azetidin-1-yl)pyridin-2-yl)methyl)-4,7-dioxo-2-(prop-2-en-1-yl)-octahydro-1H-pyrazino[2,1-c][1,2,4]triazine-1-carboxamide]	–	181 (≈ 137 µg/mL)	–	–	–	130	2.25	22	–
C=CCN1CC(=O)N2[C@@H](Cc3ccc(O)cc3F)C(=O)N(Cc3ccc(F)c(N4CC(N(C)CCN(C)C)C4)n3)C[C@@H]2N1C(=O)NCc1ccccc1 [Reference Example 6, (6S,9aS)-N-Benzyl-8-((6-(3-((2-(dimethylamino)ethyl)(methyl)amino)azetidin-1-yl)-5-fluoropyridin-2-yl)methyl)-6-((2-fluoro-4-hydroxyphenyl)methyl)-4,7-dioxo-2-(prop-2-en-1-yl)-octahydro-1H-pyrazino[2,1-c][1,2,4]triazine-1-carboxamide]	–	190 (≈ 139 µg/mL)	–	–	–	190	1.7	28	–
